Experimental data as given in patent publication US11555012B2 (Nimbus Artemis, Inc., priority 2018, dated 2023).
pIC50: −log10 of the molar value.

Each compound was assayed against ACL (Homo sapiens (Human), UniProt P53396) (assay: ADP-Glo Assay). Settings: not given.
Sequence of ACL (P53396 other isoform, or with tags, fused parts or gaps isoform P53396-2): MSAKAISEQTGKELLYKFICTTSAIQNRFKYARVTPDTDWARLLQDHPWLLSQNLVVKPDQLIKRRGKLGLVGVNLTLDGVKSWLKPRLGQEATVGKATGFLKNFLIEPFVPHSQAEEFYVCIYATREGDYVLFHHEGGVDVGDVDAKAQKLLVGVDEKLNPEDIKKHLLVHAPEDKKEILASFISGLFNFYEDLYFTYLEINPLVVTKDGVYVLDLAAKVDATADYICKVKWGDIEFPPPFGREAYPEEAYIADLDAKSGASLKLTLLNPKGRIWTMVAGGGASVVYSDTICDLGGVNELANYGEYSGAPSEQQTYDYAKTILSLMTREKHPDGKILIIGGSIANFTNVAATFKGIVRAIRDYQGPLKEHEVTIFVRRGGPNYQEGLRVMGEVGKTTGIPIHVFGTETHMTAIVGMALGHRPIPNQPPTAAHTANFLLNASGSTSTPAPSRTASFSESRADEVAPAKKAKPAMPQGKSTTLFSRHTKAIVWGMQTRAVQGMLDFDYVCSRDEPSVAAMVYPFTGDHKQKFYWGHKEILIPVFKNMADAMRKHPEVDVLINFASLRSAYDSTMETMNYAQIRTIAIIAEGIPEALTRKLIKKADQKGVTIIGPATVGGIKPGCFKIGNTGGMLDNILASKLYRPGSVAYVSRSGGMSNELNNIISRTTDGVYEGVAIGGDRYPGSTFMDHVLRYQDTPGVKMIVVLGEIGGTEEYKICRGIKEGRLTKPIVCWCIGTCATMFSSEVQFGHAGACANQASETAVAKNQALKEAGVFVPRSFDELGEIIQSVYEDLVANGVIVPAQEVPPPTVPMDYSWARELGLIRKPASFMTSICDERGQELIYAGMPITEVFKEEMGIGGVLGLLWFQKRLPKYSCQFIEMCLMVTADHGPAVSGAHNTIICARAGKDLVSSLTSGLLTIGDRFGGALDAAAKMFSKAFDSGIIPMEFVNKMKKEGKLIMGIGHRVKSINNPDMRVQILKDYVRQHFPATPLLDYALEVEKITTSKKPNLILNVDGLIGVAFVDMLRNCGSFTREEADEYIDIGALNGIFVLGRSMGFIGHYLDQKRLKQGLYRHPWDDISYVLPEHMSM

Compound | pIC50
COc1c(Br)cc(C(=O)N2CCC2)cc1S(=O)(=O)Nc1cc(-c2ccccc2)ccc1F [I-154, 5-(azetidine-1-carbonyl)-3-bromo-N-(4-fluoro-[1,1′-biphenyl]-3-yl)-2-methoxybenzenesulfonamide] | 4.70 to 6.30
COc1ccc(-c2ccccc2)cc1NS(=O)(=O)c1cc(Cl)cc(Cl)c1 [I-405, 3,5-dichloro-N-(4-methoxy-[1,1′-biphenyl]-3-yl)benzenesulfonamide] | < 4.70
O=S(=O)(NC1CCN(c2nc3ccccc3s2)CC1)c1cc(Cl)cc(Cl)c1O [I-176] | 4.70 to 6.30
COc1c(Cl)cc(Cl)cc1S(=O)(=O)Nc1cc(C(=O)O)ccc1F [I-413, 3-[(3,5-dichloro-2-methoxybenzene)sulfonamido]-4-fluorobenzoic Acid] | < 4.70
Cc1cc(S(=O)(=O)Nc2cc(-c3ccccc3)ccc2C(=O)O)ccc1-n1cnnn1 [I-357] | 4.70 to 6.30
O=C(O)c1cc(Br)cc(S(=O)(=O)Nc2cc(-c3ccccc3)ccc2C(=O)O)c1 [I-303, 3-((3-bromo-5-carboxyphenyl)sulfonamido)-[1,1′-biphenyl]-4-carboxylic Acid] | 4.70 to 6.30
Cc1c(-c2ccccc2)ccc(C(=O)O)c1NS(=O)(=O)c1cc(Cl)cc(C(F)(F)F)c1 [I-365, 3-((3-chloro-5-(trifluoromethyl)phenyl)sulfonamido)-2-methyl-[1,1′-biphenyl]-4-carboxylic Acid] | 4.70 to 6.30
NC(=O)c1sc2ccccc2c1NS(=O)(=O)c1cc(Cl)cc(Cl)c1O [I-174] | 4.70 to 6.30
Cc1c(C(=O)O)cc(Cl)c(O)c1S(=O)(=O)Nc1cc(-c2ccccc2)c(F)cc1F [I-132, 5-chloro-3-([4,6-difluoro-[1,1-biphenyl]-3-yl]sulfamoyl)-4-hydroxy-2-methylbenzoic Acid] | 4.70 to 6.30
N#Cc1cc(Cl)cc(S(=O)(=O)Nc2cc(-c3ccccc3)c(F)cc2F)c1 [I-75, 3-chloro-5-cyano-N-(2,4-difluoro-5-phenylphenyl) benzene-1-sulfonamide] | 4.70 to 6.30

The remaining lines, values ahead:

pIC50 | Compound
< 4.70 | COc1ccc(-c2ccccc2)cc1NS(=O)(=O)c1cc(Cl)cc(Cl)c1F [I-394, 3,5-dichloro-2-fluoro-N-[4-methoxy-[1,1-biphenyl]-3-yl]benzene-1-sulfonamide]
4.70 to 6.30 | COc1ccc(-c2ccccc2)cc1NS(=O)(=O)c1cc(F)cc(F)c1O [I-40, 3,5-difluoro-2-hydroxy-N-(2-methoxy-5-phenylphenyl) benzene-1-sulfonamide]
< 4.70 | Cc1ccc(S(=O)(=O)Nc2cc(-c3ccccc3)ccc2F)c(C)c1OCC(=O)O [I-526, 2-(3-(N-(4-fluoro-[1,1′-biphenyl]-3-yl)sulfamoyl)-2,6-dimethylphenoxy)acetic acid]
4.70 to 6.30 | O=C(O)c1ccc(-c2ccccc2)cc1NS(=O)(=O)c1cncc(Cl)c1 [I-247, 3-((5-chloropyridine)-3-sulfonamido)-[1,1′-biphenyl]-4-carboxylic Acid]
4.70 to 6.30 | COC(=O)COc1c(Cl)cc(Cl)cc1S(=O)(=O)Nc1cc(-c2ccccc2)c(F)cc1F [I-79, Methyl 2-[2,4-dichloro-6-[(2,4-difluoro-5-phenylphenyl)sulfamoyl]phenoxy]acetate]
4.70 to 6.30 | O=C(Cc1cc(Cl)cc(Cl)c1)Nc1cc(-c2ccccc2)ccc1C(=O)O [I-280, 3-(2-(3,5-dichlorophenyl)acetamido)-[1,1′-biphenyl]-4-carboxylic Acid]
4.70 to 6.30 | COc1ccc(-c2ccc(OC)c(NS(=O)(=O)c3cc(Cl)cc(Cl)c3O)c2)cc1 [I-5, 3,5-dichloro-N-(4,4′-dimethoxy-[1,1′-biphenyl]-3-yl)-2-hydroxybenzenesulfonamide]
4.70 to 6.30 | O=S(=O)(Nc1cc(-c2ccccc2)c(F)cc1F)c1cc(Cl)ccc1F [I-156, 5-chloro-N-(4,6-difluoro-[1,1′-biphenyl]-3-yl)-2-fluorobenzenesulfonamide]

Same assay, conditions: read-out: ACL-ADP-Glo (IC50); 3 nM ACL, 15 μM ATP, 3 μM CoA, 300 μM Citrate

pIC50 | Compound
> 7.30 | CCOC(=O)c1cc(Cl)c(O)c(S(=O)(=O)Nc2cc(-c3cc4ccccc4s3)c(F)cc2OC)c1 [I-506, ethyl 3-(N-(5-(benzo[b]thiophen-2-yl)-4-fluoro-2-methoxyphenyl)sulfamoyl)-5-chloro-4-hydroxybenzoate]
